Laboratory results published in PubChem BioAssay (NCI).
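Growth conditions: 96-well plates. Treatment: test compound, 48 hours, 5 concentrations. Analysis: linear interpolation between bracketing concentrations; unreached endpoints set to highest concentration. GI50: concentration for 50% inhibition of growth. The concentration for full growth arrest is given as TGI.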

Columns and labels:
Test in all cases: NCI tumour cell line growth inhibition, 48 h
786-0 renal = tested on: 786-0 renal
A498 renal = tested on: A498 renal
A549 NSCLC = tested on: A549 NSCLC
ACHN renal = tested on: ACHN renal
BT-549 breast = tested on: BT-549 breast
CAKI-1 renal = tested on: CAKI-1 renal
CCRF-CEM leukemia = tested on: CCRF-CEM leukemia
COLO 205 colon = tested on: COLO 205 colon
DU-145 prostate = tested on: DU-145 prostate
EKVX NSCLC = tested on: EKVX NSCLC
HCC-2998 colon = tested on: HCC-2998 colon
HCT-116 colon = tested on: HCT-116 colon
HCT-15 colon = tested on: HCT-15 colon
HL-60(TB) leukemia = tested on: HL-60(TB) leukemia
HOP-62 NSCLC = tested on: HOP-62 NSCLC
HOP-92 NSCLC = tested on: HOP-92 NSCLC
HS 578T breast = tested on: HS 578T breast
HT29 colon = tested on: HT29 colon
IGROV1 ovarian = tested on: IGROV1 ovarian
K-562 leukemia = tested on: K-562 leukemia
KM12 colon = tested on: KM12 colon
LOX IMVI melanoma = tested on: LOX IMVI melanoma
M14 melanoma = tested on: M14 melanoma
MALME-3M melanoma = tested on: MALME-3M melanoma
MCF7 breast = tested on: MCF7 breast
MDA-MB-231 breast = tested on: MDA-MB-231 breast
MDA-MB-435 = tested on: MDA-MB-435
MOLT-4 leukemia = tested on: MOLT-4 leukemia
NCI-H226 lung = tested on: NCI-H226 lung
NCI-H23 lung = tested on: NCI-H23 lung
NCI-H460 lung = tested on: NCI-H460 lung
NCI-H522 lung = tested on: NCI-H522 lung
NCI/ADR-RES ovarian = tested on: NCI/ADR-RES ovarian
OVCAR-3 ovarian = tested on: OVCAR-3 ovarian
OVCAR-4 ovarian = tested on: OVCAR-4 ovarian
OVCAR-5 ovarian = tested on: OVCAR-5 ovarian
OVCAR-8 ovarian = tested on: OVCAR-8 ovarian
PC-3 prostate = tested on: PC-3 prostate
RPMI-8226 leukemia = tested on: RPMI-8226 leukemia
RXF 393 renal = tested on: RXF 393 renal
SF-268 CNS = tested on: SF-268 CNS
SF-295 CNS = tested on: SF-295 CNS
SF-539 CNS = tested on: SF-539 CNS
SK-MEL-2 melanoma = tested on: SK-MEL-2 melanoma
SK-MEL-28 melanoma = tested on: SK-MEL-28 melanoma
SK-MEL-5 melanoma = tested on: SK-MEL-5 melanoma
SK-OV-3 ovarian = tested on: SK-OV-3 ovarian
SN12C renal = tested on: SN12C renal
SNB-19 CNS = tested on: SNB-19 CNS
SNB-75 CNS = tested on: SNB-75 CNS
SR leukemia = tested on: SR leukemia
SW-620 colon = tested on: SW-620 colon
T-47D breast = tested on: T-47D breast
TK-10 renal = tested on: TK-10 renal
U251 CNS = tested on: U251 CNS
UACC-257 melanoma = tested on: UACC-257 melanoma
UACC-62 melanoma = tested on: UACC-62 melanoma
UO-31 renal = tested on: UO-31 renal

`COc1cccc(NC(=O)c2sc3nc(C)c(C(O)c4ccccc4)cc3c2N)c1` (stereo unspecified) showed a GI50 (786-0 renal) of 665 nM, a TGI (786-0 renal) of 26600 nM and a GI50 (A498 renal) of 97.1 nM. It also gave a TGI (A498 renal) of 615 nM, a GI50 (A549 NSCLC) of 402 nM and a TGI (A549 NSCLC) of 21000 nM. For the same molecule, the GI50 (ACHN renal) was 601 nM, the TGI (ACHN renal) was 18200 nM and the GI50 (BT-549 breast) was 335 nM. The TGI (BT-549 breast) was 19500 nM, the GI50 (CAKI-1 renal) was 347 nM and the TGI (CAKI-1 renal) was 18000 nM. For the same molecule, the GI50 (CCRF-CEM leukemia) was 219 nM, the TGI (CCRF-CEM leukemia) was > 79700 nM and the GI50 (COLO 205 colon) was 2420 nM. The TGI (COLO 205 colon) was 13600 nM, the GI50 (DU-145 prostate) was 382 nM and the TGI (DU-145 prostate) was 19600 nM. The GI50 (EKVX NSCLC) was 760 nM, the TGI (EKVX NSCLC) was 34800 nM and the GI50 (HCC-2998 colon) was 359 nM. For the same molecule, the TGI (HCC-2998 colon) was 4050 nM, the GI50 (HCT-116 colon) was 241 nM and the TGI (HCT-116 colon) was 12000 nM. The GI50 (HCT-15 colon) was 92.4 nM, the TGI (HCT-15 colon) was 12400 nM and the GI50 (HL-60(TB) leukemia) was 231 nM. The TGI (HL-60(TB) leukemia) was 742 nM, the GI50 (HOP-62 NSCLC) was 481 nM and the TGI (HOP-62 NSCLC) was 26200 nM. For the same molecule, the GI50 (HOP-92 NSCLC) was 4210 nM, the TGI (HOP-92 NSCLC) was 26900 nM and the GI50 (HS 578T breast) was 222 nM. For the same molecule, the TGI (HS 578T breast) was 3210 nM, the GI50 (HT29 colon) was 300 nM and the TGI (HT29 colon) was 14000 nM. The GI50 (IGROV1 ovarian) was 441 nM, the TGI (IGROV1 ovarian) was 16800 nM and the GI50 (K-562 leukemia) was 117 nM. The TGI (K-562 leukemia) was > 100000 nM, the GI50 (KM12 colon) was 337 nM and the TGI (KM12 colon) was 11800 nM. For the same molecule, the GI50 (LOX IMVI melanoma) was 264 nM, the TGI (LOX IMVI melanoma) was 18600 nM and the GI50 (M14 melanoma) was 199 nM. The TGI (M14 melanoma) was 17400 nM, the GI50 (MALME-3M melanoma) was 580 nM and the TGI (MALME-3M melanoma) was 27400 nM. It also gave a GI50 (MCF7 breast) of 69.8 nM, a TGI (MCF7 breast) of 13900 nM and a GI50 (MDA-MB-231 breast) of 345 nM. For the same molecule, the TGI (MDA-MB-231 breast) was 33500 nM, the GI50 (MDA-MB-435) was 25.1 nM and the TGI (MDA-MB-435) was 75.1 nM. It also gave a GI50 (MOLT-4 leukemia) of 378 nM, a TGI (MOLT-4 leukemia) of 19500 nM and a GI50 (NCI-H226 lung) of 2030 nM. For the same molecule, the TGI (NCI-H226 lung) was 23700 nM, the GI50 (NCI-H23 lung) was 401 nM and the TGI (NCI-H23 lung) was 15800 nM. It also gave a GI50 (NCI-H460 lung) of 324 nM, a TGI (NCI-H460 lung) of 3210 nM and a GI50 (NCI-H522 lung) of 308 nM. For the same molecule, the TGI (NCI-H522 lung) was 14100 nM, the GI50 (NCI/ADR-RES ovarian) was 245 nM and the TGI (NCI/ADR-RES ovarian) was 941 nM. The GI50 (OVCAR-3 ovarian) was 255 nM, the TGI (OVCAR-3 ovarian) was 2930 nM and the GI50 (OVCAR-4 ovarian) was 811 nM. It also gave a TGI (OVCAR-4 ovarian) of 32700 nM, a GI50 (OVCAR-5 ovarian) of 611 nM and a TGI (OVCAR-5 ovarian) of 19200 nM. The GI50 (OVCAR-8 ovarian) was 469 nM, the TGI (OVCAR-8 ovarian) was > 66700 nM and the GI50 (PC-3 prostate) was 490 nM. For the same molecule, the TGI (PC-3 prostate) was 22300 nM, the GI50 (RPMI-8226 leukemia) was 357 nM and the TGI (RPMI-8226 leukemia) was 12300 nM. The GI50 (RXF 393 renal) was 226 nM, the TGI (RXF 393 renal) was 2750 nM and the GI50 (SF-268 CNS) was 1050 nM. For the same molecule, the TGI (SF-268 CNS) was 30900 nM, the GI50 (SF-295 CNS) was 276 nM and the TGI (SF-295 CNS) was 6820 nM. The GI50 (SF-539 CNS) was 185 nM, the TGI (SF-539 CNS) was 598 nM and the GI50 (SK-MEL-2 melanoma) was 960 nM. It also gave a TGI (SK-MEL-2 melanoma) of 29700 nM, a GI50 (SK-MEL-28 melanoma) of 3650 nM and a TGI (SK-MEL-28 melanoma) of 35300 nM. For the same molecule, the GI50 (SK-MEL-5 melanoma) was 287 nM, the TGI (SK-MEL-5 melanoma) was 1320 nM and the GI50 (SK-OV-3 ovarian) was 658 nM. The TGI (SK-OV-3 ovarian) was 23800 nM, the GI50 (SN12C renal) was 421 nM and the TGI (SN12C renal) was 17600 nM. The GI50 (SNB-19 CNS) was 467 nM, the TGI (SNB-19 CNS) was 74600 nM and the GI50 (SNB-75 CNS) was 174 nM. It also gave a TGI (SNB-75 CNS) of 4550 nM, a GI50 (SR leukemia) of 50.3 nM and a TGI (SR leukemia) of 22100 nM. It also gave a GI50 (SW-620 colon) of 228 nM, a TGI (SW-620 colon) of 27100 nM and a GI50 (T-47D breast) of 737 nM. For the same molecule, the TGI (T-47D breast) was 28400 nM, the GI50 (TK-10 renal) was 2030 nM and the TGI (TK-10 renal) was 65100 nM. For the same molecule, the GI50 (U251 CNS) was 289 nM, the TGI (U251 CNS) was 22300 nM and the GI50 (UACC-257 melanoma) was 2720 nM. The TGI (UACC-257 melanoma) was 35100 nM, the GI50 (UACC-62 melanoma) was 503 nM and the TGI (UACC-62 melanoma) was 17300 nM. For the same molecule, the GI50 (UO-31 renal) was 850 nM and the TGI (UO-31 renal) was 18900 nM.
